Measured values: patent US20160243136A1, “PHARMACEUTICAL FORMULATIONS CONTAINING MITOCHONDRIALLY TARGETED ANTIOXIDANTS” (Mitotech SA, priority 2013, published 2016)

How the values were obtained:
rat model of APN = experiment: In vivo rat model of acute pyelonephritis (APN), bacteria introduced in the bladder; settings: 7th day
Procedure: An in vivo experimental model of APN was used where bacteria are introduced in the bladder of rat (Gupta et al. (1995) J. Med. Microbiol. 43:33-36). Experiments were performed on outbred white female rats (180-200 g) fed ad libitum. Animal protocols were approved by the Institutional Review Boards. Rats were anesthetized with chloral hydrate (300 mg/kg, intraperitoneally(ip)). The animals were infected intraurethrally using a soft Intramedic non-radio-opaque polyethylene catheter (Clay Adams, USA). The inoculum (5 ml per kg, 1×10^8 CFU/ml of rat fecal bacterial composition) was injected slowly to avoid any leakage […]. Control animals were untreated. The therapeutic protocol of SkQR1 used to treat this pathology was as follows: […], with subsequent injections of the same amount of SkQR1 at 12, 24, 36 and 48 hrs; in total, each animal received 500 nmol SkQR1 per kg. […]
Kidney mitochondria were isolated by homogenization and differential centrifugation in a medium containing 250 mM sucrose, 20 mM HEPES-KOH, 1 mM EGTA and 0.1% BSA, pH7.4. Total mitochondrial protein was determined using a bicinchoninic acid protein assay kit (Sigma-Aldrich, USA). The mitochondria from cultured kidney cells were isolated by the same protocol.
The ROS-sensitive fluorescent probe 2,7-DCF-DA (Molecular Probes, USA) dissolved in DMEM/F12 without bicarbonate (final concentration 10 μM) was added to renal cells (500 μl per well of 24-well plate, 2 ml per dish) and incubated for 15 min at 37° C. followed by a wash with DMEM/F12 without bicarbonate. MDA was determined as in (Mihara and Uchiyama (1978) Anal. Biochem. 86:271-8). Fluorescent probe, DAF-2-DA (Calbiochem, San Diego, Calif., USA) was used for NO determination in living cells. The procedure was the same as for 2,7-DCF-DA. The nitrite/nitrate concentration (as products of NO oxidation) in culture media was determined using Nitrite/Nitrate Assay Kit (Sigma-Aldrich, USA). TNFα was determined using the kit Rat TNFα ELISA Ready-SET-Go (Ebioscience, USA).
The kidney was isolated immediately after sacrificing the animal and perfused with ice-cold PBS. It was then fixed in a 10% neutral buffered formalin solution, embedded in paraffin and used for histopathological examination. Five micrometer thick sections were cut, deparaffinized, hydrated, and stained with hematoxylin and eosin. The renal sections were examined in blinded fashion for inflammation and infiltration by leukocytes in the kidneys of all treated animals. A minimum of 10 fields for each kidney slide were examined and scored for pathologic severity.
The manifestation of inflammatory indicators (i.e., a number of infiltrated leukocytes in every layer and the presence of abscesses) under APN was evaluated using the following scale: 0, none; 1, 5-50 leukocytes in the view field; […]; 4, abscesses with pus-necrotic content. The distribution of inflammatory changes (i.e., comparative analysis of infiltration and abscesses) was evaluated by the following criteria: 0, none in any layer; 1, infiltration in the medullar layer; 2, infiltration reaching the cortex.
(§1) Kidney homogenates for MPO determination were centrifuged at 20000 g 15 min, the pellets were resuspended in 50 mM K-phosphate buffer containing 0.5% CTAB. Resulted samples were frozen and thawed three times and then centrifuged at 10600 g 10 min. Supernatants were analyzed for MPO activity in chromogenic reaction with o-phenylenediamine (OPD). 100 μl sample was mixed with 100 μl substrate buffer (25 mM Na-citrate, 50 mM Na-phosphate, 0.45 mg/ml OPD, 0.1% H2O2, pH 5.0) and was incubated 15 min at room temperature and then OD was detected at 492 nm.
Samples of kidney homogenates were loaded onto 15% Tris-glycine polyacrylamide gels (10-20 μg of total protein per lane). After electrophoresis, gels were blotted onto PVDF membranes (Amersham Pharmacia Biotech, UK). […]

[1] = tested on: Human endothelial cell line EA.hy926; experiment: High-glucose endothelium damage, immunoblotting detection of VE-cadherin; type: cell-based; settings: 2 nM and 20 nM SkQ1 pre-incubation 4 d; 45 mM D-glucose 2 d; vs vehicle control
Excerpt: Human endothelial cell line EA.hy926 (ATCC Collection; catalog number CRL-2922) was used as a model of the endothelium vessel damage occurring during inflammatory process and/or diabetes. This cell line is similar to primary HUVEC cell line (Edgell et al. (1983) PNAS, 80(12):3734-7; Edgell et al. (1990) In Vitro Cell Dev. Biol., 26(12):1167-72) and widely used as a relevant model for inflammation studies (Riesbeck et al. (1998) Clin. Vaccine Immunol., 5:5675-682).
Accordingly, human endothelial cells EA.hy926 were pre-incubated with 2 nM and 20 nM of SkQ1 solution in Dulbecco's Modified Eagle's Medium (DMEM) supplemented with 10% of fetal serum (Example 1) for 4 d. Cells were then incubated 2 d with DMEM medium containing 1% FBS and 5 mM D-glucose. The cells were then incubated 2 d with 45 mM D-glucose and were then used for immunoblotting detection of VE-cadherin.

[2] = tested on: Wistar rats with acute pancreatitis; experiment: Arginine-induced acute pancreatitis model; type: in vivo, rat; settings: for MPO activity in pancreatic tissue homogenates: control 52.9, intact 6.1
Procedure: as §1
42 Wistar rats (age: 20-25 week, weight 400 g-750 g) were distributed among 4 experiemntal groups with the same average weight. SkQ1 was administered with drinking water with an estimated dosage of 250 nmoles/kg/day or 50 nmoles/kg/day. Acute pancreatitis was induced by a single intraperitoneal (ip) injection of arginine (100 mg/100 g of animal weight; 20% arginine solution in about 2.5 ml phosphate buffer).
The experimental groups were: (1) Intact (n=10); (2) Control (n=10) treated with arginine ip injection; (3) SkQ250-SkQ1 pretreatment with 250 nmoles/kg/day dosage for 9 days; IP injection of arginine on day 9, continuation of SkQ1 treatment for 24 hr (n=10); and (4) SkQ50-SkQ1 pretreatment with 50 nmoles/kg/day dosage for 9 days. IP injection of arginine on day 9, continuation of SkQ1 treatment for 24 hr (n=10).
The activity of pancreatic myeloperoxidase (MPO) was also measured as described in Example 1 (for kidney tissue).
Samples of pancreas were fixed in 10% formalin and then prepared for eosin-hematoxylin staining of 5 μm-6 μm slices using standard techniques. Stained samples (slices) were examined under light microscopy.
The intensity of inflammation in the samples was measured by a standard ascending scale score from 0 to 3. The average score of inflammation in rats without SkQ treatment was 1.5.

## CC1=C(C)C(=O)C(CCCCCCCCCC[P+](c2ccccc2)(c2ccccc2)c2ccccc2)=CC1=O [SkQ1, 10-(6-plastoquinonyl)decyl-triphenylphosphonium]
Rat model of APN; SkQ1 100 nmol/kg ip on 3rd day
  leukocyte concentration in blood: significantly reduced
Rat model of APN; SkQ1 100 nmol/kg ip on 3rd day after induction, vs animals not receiving SkQ1
  neutrophils concentration in blood: twice as low
Rat model of APN; SkQ1 ip on third day after induction
  MPO activity in renal tissue (inflammation of kidney tissue): significant suppression
[1]
  VE-cadherin downregulation induced by high glucose: prevents
[2]; SkQ50: 50 nmoles/kg/day for 9 days + 24 hr
  MPO activity in pancreatic tissue homogenates: 50.0
[2]; SkQ50: 50 nmoles/kg/day, untreated pancreatitis 1.5
  Average inflammation score (pancreas histology, scale 0 to 3): 1.5
[2]; SkQ250: 250 nmoles/kg/day for 9 days + 24 hr
  MPO activity in pancreatic tissue homogenates: 15.8
[2]; both dosages (250 and 50 nmoles/kg/day in drinking water)
  weight of the pancreas (edema): prevented an increase
